Consider 16 molecules from PubChem BioAssay AID248 (DTP/NCI, 2004).

This experiment deals with L1210 leukemia ip in BDF1 mice, survival T/C. As to the kind of experiment: NCI In Vivo Anticancer Drug Screen. Data for tumor model L1210 Leukemia (intraperitoneal) in B6D2F1 (BDF1) mice. As to conditions: endpoint: mean survival time, higher = longer survival. Summed up:
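Ratio derived from survival: compound-dosed mice over vehicle-dosed mice, all bearing a transplantable tumor.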

The mark [1] stands for this setting: dose: 100.0 mg/kg/injection, schedule: Q01DX001 (ip), vehicle: saline.
Where [2] appears, read: dose: 200.0 mg/kg/injection, schedule: Q01DX001 (ip), vehicle: saline.
[3] abbreviates: dose: 400.0 mg/kg/injection, schedule: Q01DX001 (ip), vehicle: saline.
The mark [4] stands for this setting: dose: 100.0 mg/kg/injection, schedule: Q04DX003 (ip), vehicle: saline with Tween-80.
Setting [5] is: dose: 200.0 mg/kg/injection, schedule: Q04DX003 (ip), vehicle: saline with Tween-80.

Each structure is given as a SMILES string. Inconclusive results and toxic doses are left out.

On to `CCOC1=C(N2CC2)C(=O)C(OCC)=C(N2CC2)C1=O`, for which the T/C was 109 % of control (dose: 0.1 mg/kg/injection, schedule: Q01DX009 (ip), vehicle: saline); 105 % of control (dose: 0.1 mg/kg/injection, schedule: Q01DX Z (ip), vehicle: carboxymethylcellulose (CMC)); 105 % of control (dose: 0.25 mg/kg/injection, schedule: Q01DX001 (ip), vehicle: saline); 107 % of control (dose: 0.25 mg/kg/injection, schedule: Q01DX009 (ip), vehicle: saline); 118 % of control (dose: 0.25 mg/kg/injection, schedule: Q01DX Z (ip), vehicle: saline); 105 % of control (dose: 0.3 mg/kg/injection, schedule: Q01DX Z (ip), vehicle: carboxymethylcellulose (CMC)). Further, the T/C is, setting by setting: (dose: 0.31 mg/kg/injection, schedule: Q01DX Z (ip), vehicle: saline) 110 % of control; (dose: 0.47 mg/kg/injection, schedule: Q01DX Z (ip), vehicle: saline) 121 % of control; (dose: 0.5 mg/kg/injection, schedule: Q01DX001 (ip), vehicle: saline) 103 % of control; (dose: 0.5 mg/kg/injection, schedule: Q01DX009 (ip), vehicle: saline) 109 % of control; (dose: 0.5 mg/kg/injection, schedule: Q01DX Z (ip), vehicle: saline) 118 % of control; (dose: 0.7 mg/kg/injection, schedule: Q01DX Z (ip), vehicle: saline) 121 % of control. Besides, the T/C is, setting by setting: (dose: 1.0 mg/kg/injection, schedule: Q01DX001 (ip), vehicle: saline) 107 % of control; (dose: 1.0 mg/kg/injection, schedule: Q01DX009 (ip), vehicle: saline) 121 % of control; (dose: 1.0 mg/kg/injection, schedule: Q01DX Z (ip), vehicle: saline) 157 % of control; (dose: 2.0 mg/kg/injection, schedule: Q01DX001 (ip), vehicle: saline) 118 % of control; (dose: 4.0 mg/kg/injection, schedule: Q01DX Z (ip), vehicle: saline) 94 % of control; (dose: 5.0 mg/kg/injection, schedule: Q01DX001 (ip), vehicle: saline) 158 % of control. The T/C is, setting by setting: (dose: 5.0 mg/kg/injection, schedule: Q01DX Z (ip), vehicle: methylcellulose (MC)) 102 % of control; (dose: 10.0 mg/kg/injection, schedule: Q01DX001 (ip), vehicle: saline) 103 % of control.

As for `CC(=O)C(CCC#N)C(C)=O.CC(=O)C(CCC#N)C(C)=O.[Cu]`, the T/C was 95 % of control (dose: 6.25 mg/kg/injection, schedule: Q01DX009 (ip), vehicle: Klucel (hydroxypropylcellulose) (HPC)); 98 % of control (dose: 12.5 mg/kg/injection, schedule: Q01DX009 (ip), vehicle: Klucel (hydroxypropylcellulose) (HPC)); 90 % of control (dose: 12.5 mg/kg/injection, schedule: Q04DX003 (ip), vehicle: Klucel (hydroxypropylcellulose) (HPC)); 87 % of control (dose: 25.0 mg/kg/injection, schedule: Q01DX009 (ip), vehicle: Klucel (hydroxypropylcellulose) (HPC)); 91 % of control (dose: 25.0 mg/kg/injection, schedule: Q04DX003 (ip), vehicle: Klucel (hydroxypropylcellulose) (HPC)).

Regarding `Nc1ccc(S(=O)(=O)C(Cl)c2ccccc2)cc1` (stereo not drawn), the T/C runs as follows: under setting [1], 104 % of control; under setting [2], 102 % of control; under setting [3], 104 % of control.

For the molecule `O=C(COc1cccc(C(=O)O)c1)Nc1ccccc1`, the T/C is, setting by setting: (dose: 100.0 mg/kg/injection, schedule: Q04DX003 (ip), vehicle: Klucel (hydroxypropylcellulose) (HPC)) 95 % of control; (dose: 200.0 mg/kg/injection, schedule: Q04DX003 (ip), vehicle: Klucel (hydroxypropylcellulose) (HPC)) 93 % of control; (dose: 400.0 mg/kg/injection, schedule: Q04DX003 (ip), vehicle: Klucel (hydroxypropylcellulose) (HPC)) 92 % of control.

On to `CC(=O)Nc1c(F)c(F)c(N=Nc2ccccc2)c(F)c1F`, for which the T/C was 100 % of control (dose: 100.0 mg/kg/injection, schedule: Q01DX001 (ip), vehicle: carboxymethylcellulose (CMC)); 102 % of control (dose: 200.0 mg/kg/injection, schedule: Q01DX001 (ip), vehicle: carboxymethylcellulose (CMC)); 100 % of control (dose: 400.0 mg/kg/injection, schedule: Q01DX001 (ip), vehicle: carboxymethylcellulose (CMC)).

On to `C/C=C(\C)C(=O)O[C@@H]1c2cc3c(cc2-c2c(cc(OC)c(OC)c2OC)[C@@H]2C(=O)OC[C@@H]12)OCO3`, for which the T/C was 94 % of control (dose: 8.0 mg/kg/injection, schedule: Q01DX009 (ip), vehicle: saline + alcohol); 108 % of control (dose: 12.0 mg/kg/injection, schedule: Q01DX009 (ip), vehicle: saline + alcohol); 105 % of control (dose: 18.0 mg/kg/injection, schedule: Q01DX009 (ip), vehicle: saline + alcohol); 100 % of control (dose: 27.0 mg/kg/injection, schedule: Q01DX009 (ip), vehicle: saline + alcohol).

Take `Cc1ccc(N2CCN(CC(O)c3ccccc3)CC2)cc1` (stereo not drawn): the T/C (dose: 50.0 mg/kg/injection, schedule: Q01DX009 (ip), vehicle: Klucel (hydroxypropylcellulose) (HPC)) was 95 % of control; the T/C (dose: 100.0 mg/kg/injection, schedule: Q01DX009 (ip), vehicle: Klucel (hydroxypropylcellulose) (HPC)) was 95 % of control; the T/C (dose: 200.0 mg/kg/injection, schedule: Q01DX009 (ip), vehicle: Klucel (hydroxypropylcellulose) (HPC)) is 98 % of control.

In the case of `CC(=O)O/N=C(\C)C12CCCCC1C(O)CCC2` (stereo not drawn), the T/C is, setting by setting: under setting [1], 91 % of control; (dose: 100.0 mg/kg/injection, schedule: Q04DX003 (ip), vehicle: saline) 94 % of control; under setting [2], 91 % of control; (dose: 200.0 mg/kg/injection, schedule: Q04DX003 (ip), vehicle: saline) 101 % of control; under setting [3], 91 % of control; (dose: 400.0 mg/kg/injection, schedule: Q04DX003 (ip), vehicle: saline) 104 % of control.

Regarding `NC(=O)NC1C(c2ccccc2)C1c1ccccc1` (stereo not drawn), the T/C is, setting by setting: under setting [1], 121 % of control; under setting [2], 110 % of control; under setting [3], 93 % of control.

As for `CCCNC(=O)Nc1cc(C(F)(F)F)ccc1Cl`, the T/C is, setting by setting: (dose: 100.0 mg/kg/injection, schedule: Q01DX009 (ip), vehicle: saline with Tween-80) 98 % of control; under setting [4], 97 % of control; (dose: 200.0 mg/kg/injection, schedule: Q01DX009 (ip), vehicle: saline with Tween-80) 88 % of control; under setting [5], 103 % of control; (dose: 400.0 mg/kg/injection, schedule: Q01DX009 (ip), vehicle: saline with Tween-80) 87 % of control; (dose: 400.0 mg/kg/injection, schedule: Q04DX003 (ip), vehicle: saline with Tween-80) 108 % of control.

On to `CC(=O)OC(C)C(=O)C1=C2CCCN2CCc2cc3c(cc21)OCO3` (stereo not drawn), for which the T/C by setting is: (dose: 100.0 mg/kg/injection, schedule: Q04DX002 (ip), vehicle: Klucel (hydroxypropylcellulose) (HPC)) 103 % of control; (dose: 200.0 mg/kg/injection, schedule: Q04DX002 (ip), vehicle: Klucel (hydroxypropylcellulose) (HPC)) 103 % of control; (dose: 400.0 mg/kg/injection, schedule: Q04DX002 (ip), vehicle: Klucel (hydroxypropylcellulose) (HPC)) 103 % of control.

For `Cc1nc(N)c([N+](=O)[O-])cc1[N+](=O)[O-]`, the T/C (dose: 100.0 mg/kg/injection, schedule: Q01DX009 (ip), vehicle: acetone) is 100 % of control.

Turning to `C=CCCC(=O)OC(C)(C)C`, the T/C runs as follows: (dose: 25.0 mg/kg/injection, schedule: Q01DX009 (ip), vehicle: water) 96 % of control; (dose: 50.0 mg/kg/injection, schedule: Q01DX009 (ip), vehicle: water) 96 % of control; (dose: 100.0 mg/kg/injection, schedule: Q01DX009 (ip), vehicle: water) 98 % of control; (dose: 200.0 mg/kg/injection, schedule: Q01DX009 (ip), vehicle: water) 97 % of control.

For `O=[N+]([O-])c1cccc(OCCCOc2ccccc2)c1`, the T/C runs as follows: (dose: 100.0 mg/kg/injection, schedule: Q01DX009 (ip), vehicle: other) 100 % of control; (dose: 200.0 mg/kg/injection, schedule: Q01DX009 (ip), vehicle: other) 92 % of control; (dose: 400.0 mg/kg/injection, schedule: Q01DX009 (ip), vehicle: other) 103 % of control.

Turning to `NC(=O)C(NC(=O)Nc1ccccc1)C(N)=O`, the T/C is, setting by setting: (dose: 12.5 mg/kg/injection, schedule: Q04DX003 (ip), vehicle: gum acacia) 100 % of control; (dose: 25.0 mg/kg/injection, schedule: Q04DX003 (ip), vehicle: gum acacia) 97 % of control; (dose: 50.0 mg/kg/injection, schedule: Q04DX003 (ip), vehicle: gum acacia) 92 % of control; (dose: 100.0 mg/kg/injection, schedule: Q04DX003 (ip), vehicle: gum acacia) 98 % of control.

Consider `COC(=O)C(=C(c1ccccc1)c1ccccc1)c1ccccc1`, for which the T/C is 90 % of control under setting [4] and 90 % of control under setting [5].
